Measured values published in article PMC11500415, “Chemical inhibition of stomatal differentiation by perturbation of the master-regulatory bHLH heterodimer via an ACT-Like domain” (Nature Communications, 2024).
Several values for one entry are separate records, joined by “and”; a condition that tells them apart may be missing. Identical values can stand only once. Like-named read-outs stand apart in the source and are kept apart here.

Molecular target: T1, MUTE_ACTL (Arabidopsis thaliana, UniProt Q9M8K6)
T1 construct: MUTE-ACTL (114-202); made in house; host or cells: E. coli BL21
Test: BLI direct binding
Design: species or system A. thaliana
Text: A. thaliana SCRM (1-494), ΔNSPCH (98-364), MUTE (1-202), ΔNFAMA (190-414), MUTEΔC (1-114), MUTER133A_R134A, MUTEE162A_E163A, MUTER133A_R134A_E162A_E163A, SCRM-ACTL (405-494), MUTE-ACTL (114-202), SPCH-ACTL (285-364), FAMA-ACTL (306-414), MUTE_ACTLR133A_R134A, MUTE_ACTLE162A_E163A, MUTE_ACTLR133A_R134A_E162A_E163A were cloned into pGEX-4T-1 vector with an N-terminal GST tag and a thrombin cleavage sequence. For protein expression, the constructs were transformed into E. coli strain BL21. For each transformant, a single colony was selected and incubated in 10 ml LB liquid media. The overnight-incubated E. coli suspensions were transferred to 1 L LB medium and incubated at 37 °C for around 2 h until the OD600 reached 0.4–0.6. The isopropyl β-D-1-thiogalactopyranoside ([…] of final concentration) was added to the cultures and the strains were incubated at 22 °C for a further 18 h. GST-fused proteins were purified using glutathione agarose resin. The soluble portion of the cell lysate was loaded onto a GST-Sepharose column. Nonspecifically bound proteins were removed by washing the column with 20 mM Tris pH 8.0, 200 mM NaCl. The bound GST-fused protein was eluted with 10 mm glutathione and 20 mM Tris pH 8.0, 200 mM NaCl. The GST-fused proteins were exchanged with phosphate-buffered saline buffer, and then the solution was treated with 50 μg of thrombin for 10–12 h at 16 ^οC. The GST portion of the protein was cleaved during thrombin digestion, and then the whole solution was reloaded onto the glutathione S-transferase column to obtain pure protein. The purified proteins were further purified by gel filtration on a Superdex-200 (GE) column using fast protein liquid chromatography and phosphate buffer (pH 7.2) as the eluent. The purity of the protein was checked by SDS-PAGE. For detailed lists of oligo DNA and plasmid information, see Supplementary Tables 5, 6, respectively.
The binding affinities of SCRM to MUTE / MUTER133A_R134A / MUTEE162A_E163A / MUTER133A_R134A_E162A_E163A in presence and absence of Stomidazolone (3) and its analogues (AYSJ1059 (5) and AYSJ1061 (6)), and Stomidazolone / AYSJ1059 / AYSJ1061 interactions with GST-tagged SCRM, MUTE, SPCH, FAMA, MUTE ΔACTL, MUTE_ACTL, SCRM_ACTL, SPCH_ACTL and FAMA_ACTL, MUTER133A_134A, MUTEE162A_E163A, MUTER133A_R134A_E162A_E163A were measured using the Octet Red96 system (ForteBio, Pall Life Sciences) following the manufacturer’s protocols. The optical probes coated with anti-GST were first loaded with 500 nM GST tagged proteins before kinetic binding analyses. The experiment was performed in 96-well plates maintained at 30 °C. Each well was loaded with 200 μL reaction volume for the experiment. The binding buffer used in these experiments contained 1× PBS supplemented with 2% DMSO, 0.02% Tween20. […] There was no binding of the analytes to the unloaded probes as shown by the control wells. Binding kinetics to all seven concentrations of the analytes were measured simultaneously using default parameters on the instrument. The data were analyzed using the Octet data analysis software. The association and dissociation curves were fit with the 1:1 homogeneous ligand model. The kobs (observed rate constant) values were used to calculate Kd, with steady-state analysis of the direct binding. See Supplementary Table 3 for details.

[1] = MUTE_ACTL on Anti-GST sensor, Stomid 3.12 µM, rep-1, rep-2
[2] = MUTE_ACTL on Anti-GST sensor, Stomid 6.25 µM, rep-1, rep-2
[3] = MUTE_ACTL on Anti-GST sensor, Stomid 12.5 µM, rep-1, rep-2
[4] = MUTE_ACTL on Anti-GST sensor, Stomid 25 µM, rep-1, rep-2
[5] = MUTE_ACTL on Anti-GST sensor, Stomid 50 µM, rep-1, rep-2
[6] = MUTE_ACTL on Anti-GST sensor, Stomid 100 µM, rep-1, rep-2
[7] = MUTE_ACTL on Anti-GST sensor, Stomid 200 µM, rep-1, rep-2

T1 sequence (Q9M8K6 114-202): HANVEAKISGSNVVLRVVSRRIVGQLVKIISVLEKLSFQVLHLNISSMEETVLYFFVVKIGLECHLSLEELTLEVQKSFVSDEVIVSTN

O=C1C(c2ccccc2)=NC(NS(=O)(=O)c2ccccc2)(c2ccccc2)N1S(=O)(=O)c1ccccc1 (centres unmarked) [Stomidazolone]
Kd (BLI steady state, MUTE_ACTL, read-out: KD (SS)): 13.1 ± 1.3 µM | Response (BLI, GST-MUTE_ACTL on Anti-GST sensor, Stomid 3.12 µM): 0.126 and 0.163 | Response (BLI, GST-MUTE_ACTL on Anti-GST sensor, Stomid 6.25 µM): 0.271 and 0.242 | Response (BLI, GST-MUTE_ACTL on Anti-GST sensor, Stomid 12.5 µM): 0.425 and 0.391 | Response (BLI, GST-MUTE_ACTL on Anti-GST sensor, Stomid 25 µM): 0.524 and 0.486 | Response (BLI, GST-MUTE_ACTL on Anti-GST sensor, Stomid 50 µM): 0.535 and 0.563 | Response (BLI, GST-MUTE_ACTL on Anti-GST sensor, Stomid 100 µM): 0.611 and 0.632 | Response (BLI, GST-MUTE_ACTL on Anti-GST sensor, Stomid 200 µM): 0.625 and 0.645 | RMax (BLI, sensor at Stomid 3.12 µM): 0.132 and 0.165 | Kd (BLI, sensor at Stomid 3.12 µM, read-out: KD): 11.7 µM | RMax (BLI, sensor at Stomid 6.25 µM): 0.28 and 0.245 | kobs (BLI, sensor at Stomid 6.25 µM): 0.00155 s⁻¹ and 0.00133 s⁻¹ | kon (BLI, sensor at Stomid 6.25 µM): 4070 M⁻¹ s⁻¹ | Kd (BLI, sensor at Stomid 6.25 µM, read-out: KD): 11.9 µM | RMax (BLI, sensor at Stomid 12.5 µM): 0.435 and 0.4 | Req/Rmax(%) (BLI, sensor at Stomid 12.5 µM): 49% and 87.1% | kdis (BLI, sensor at Stomid 12.5 µM): 0.0482 s⁻¹ | kon (BLI, sensor at Stomid 12.5 µM): 4050 M⁻¹ s⁻¹ | Kd (BLI, sensor at Stomid 12.5 µM, read-out: KD): 11.9 µM | RMax (BLI, sensor at Stomid 25 µM): 0.53 and 0.49 | Req/Rmax(%) (BLI, sensor at Stomid 25 µM): 61.4% and 83.8% | kdis (BLI, sensor at Stomid 25 µM): 0.0488 s⁻¹ | kobs (BLI, sensor at Stomid 25 µM): 0.00162 s⁻¹ and 0.00294 s⁻¹ | kon (BLI, sensor at Stomid 25 µM): 4070 M⁻¹ s⁻¹ | Kd (BLI, sensor at Stomid 25 µM, read-out: KD): 11.8 µM and 12 µM | RMax (BLI, sensor at Stomid 50 µM): 0.545 and 0.565 | Req/Rmax(%) (BLI, sensor at Stomid 50 µM): 71.3% | kdis (BLI, sensor at Stomid 50 µM): 0.0473 s⁻¹ | kon (BLI, sensor at Stomid 50 µM): 4010 M⁻¹ s⁻¹ | Kd (BLI, sensor at Stomid 50 µM, read-out: KD): 11.9 µM and 11.8 µM | RMax (BLI, sensor at Stomid 100 µM): 0.621 and 0.64 | Req/Rmax(%) (BLI, sensor at Stomid 100 µM): 98.7% | kdis (BLI, sensor at Stomid 100 µM): 0.0476 s⁻¹ | kon (BLI, sensor at Stomid 100 µM): 4080 M⁻¹ s⁻¹ | Kd (BLI, sensor at Stomid 100 µM, read-out: KD): 12.1 µM and 11.7 µM | RMax (BLI, sensor at Stomid 200 µM): 0.63 and 0.655 | Req/Rmax(%) (BLI, sensor at Stomid 200 µM): 100% | kdis (BLI, sensor at Stomid 200 µM): 0.0474 s⁻¹ | kobs (BLI, sensor at Stomid 200 µM): 0.0329 s⁻¹ and 0.0251 s⁻¹ | kon (BLI, sensor at Stomid 200 µM): 4070 M⁻¹ s⁻¹ | Kd (BLI, sensor at Stomid 200 µM, read-out: KD): 12 µM and 11.6 µM | Kd (BLI, MUTE_ACTL, read-out: KD): 12.2 ± 2.1 µM | RMax [1]: 0.132 and 0.165 | Response [1]: 0.126 and 0.163 | Kd (MUTE_ACTL on Anti-GST sensor, Stomid 3.12 µM, rep-1, rep-2, read-out: KD): 11.7 µM | RMax [2]: 0.28 and 0.245 | Response [2]: 0.271 and 0.242 | kobs [2]: 0.00155 s⁻¹ and 0.00133 s⁻¹ | kon [2]: 4070 M⁻¹ s⁻¹ | Kd (MUTE_ACTL on Anti-GST sensor, Stomid 6.25 µM, rep-1, rep-2, read-out: KD): 11.9 µM | RMax [3]: 0.4 and 0.435 | Req/Rmax(%) [3]: 87.1% and 49% | Response [3]: 0.391 and 0.425 | kon [3]: 4070 M⁻¹ s⁻¹ | Kd (MUTE_ACTL on Anti-GST sensor, Stomid 12.5 µM, rep-1, rep-2, read-out: KD): 11.9 µM | RMax [4]: 0.49 and 0.53 | Req/Rmax(%) [4]: 83.8% and 61.4% | Response [4]: 0.486 and 0.524 | kobs [4]: 0.00294 s⁻¹ and 0.00162 s⁻¹ | kon [4]: 4080 M⁻¹ s⁻¹ | Kd (MUTE_ACTL on Anti-GST sensor, Stomid 25 µM, rep-1, rep-2, read-out: KD): 12 µM and 11.8 µM | RMax [5]: 0.545 and 0.565 | Req/Rmax(%) [5]: 71.3% | Response [5]: 0.535 and 0.563 | Kd (MUTE_ACTL on Anti-GST sensor, Stomid 50 µM, rep-1, rep-2, read-out: KD): 11.9 µM and 11.8 µM | RMax [6]: 0.621 and 0.64 | Req/Rmax(%) [6]: 98.7% | Response [6]: 0.611 and 0.632 | Kd (MUTE_ACTL on Anti-GST sensor, Stomid 100 µM, rep-1, rep-2, read-out: KD): 11.7 µM | RMax [7]: 0.63 and 0.655 | Req/Rmax(%) [7]: 100% | Response [7]: 0.625 and 0.645 | kobs [7]: 0.0329 s⁻¹ and 0.0251 s⁻¹ | Kd (MUTE_ACTL on Anti-GST sensor, Stomid 200 µM, rep-1, rep-2, read-out: KD): 12 µM | koff (read-out: kdis(1/s), BLI, sensor at Stomid 3.12 µM): 0.0481 s⁻¹ | koff (read-out: kdis(1/s), BLI, sensor at Stomid 6.25 µM): 0.0483 s⁻¹ | koff (read-out: kdis(1/s), BLI, sensor at Stomid 12.5 µM): 0.0485 s⁻¹ | koff (read-out: kdis(1/s), BLI, sensor at Stomid 25 µM): 0.0483 s⁻¹ | koff (read-out: kdis(1/s), BLI, sensor at Stomid 50 µM): 0.0485 s⁻¹ | koff (read-out: kdis(1/s), BLI, sensor at Stomid 100 µM): 0.0491 s⁻¹ | koff (read-out: kdis(1/s), BLI, sensor at Stomid 200 µM): 0.0486 s⁻¹ | koff (read-out: kdis(1/s), MUTE_ACTL on Anti-GST sensor, Stomid 6.25 µM, rep-1, rep-2): 0.0483 s⁻¹ | koff (read-out: kdis(1/s), MUTE_ACTL on Anti-GST sensor, Stomid 12.5 µM, rep-1, rep-2): 0.0485 s⁻¹ | koff (read-out: kdis(1/s), MUTE_ACTL on Anti-GST sensor, Stomid 25 µM, rep-1, rep-2): 0.0483 s⁻¹ | koff (read-out: kdis(1/s), MUTE_ACTL on Anti-GST sensor, Stomid 50 µM, rep-1, rep-2): 0.0485 s⁻¹ | kon (read-out: kon(1/Ms), BLI, sensor at Stomid 3.12 µM): 4110 M⁻¹ s⁻¹ | kon (read-out: kon(1/Ms), BLI, sensor at Stomid 6.25 µM): 4050 M⁻¹ s⁻¹ | kon (read-out: kon(1/Ms), BLI, sensor at Stomid 12.5 µM): 4070 M⁻¹ s⁻¹ | kon (read-out: kon(1/Ms), BLI, sensor at Stomid 25 µM): 4080 M⁻¹ s⁻¹ | kon (read-out: kon(1/Ms), BLI, sensor at Stomid 50 µM): 4070 M⁻¹ s⁻¹ | kon (read-out: kon(1/Ms), BLI, sensor at Stomid 100 µM): 4060 M⁻¹ s⁻¹ | kon (read-out: kon(1/Ms), BLI, sensor at Stomid 200 µM): 4040 M⁻¹ s⁻¹ | kon (read-out: kon(1/Ms), MUTE_ACTL on Anti-GST sensor, Stomid 6.25 µM, rep-1, rep-2): 4050 M⁻¹ s⁻¹ | kon (read-out: kon(1/Ms), MUTE_ACTL on Anti-GST sensor, Stomid 12.5 µM, rep-1, rep-2): 4050 M⁻¹ s⁻¹ | kon (read-out: kon(1/Ms), MUTE_ACTL on Anti-GST sensor, Stomid 25 µM, rep-1, rep-2): 4070 M⁻¹ s⁻¹ | kon (read-out: kon(1/Ms), MUTE_ACTL on Anti-GST sensor, Stomid 50 µM, rep-1, rep-2): 4070 M⁻¹ s⁻¹ | kon (read-out: kon(1/Ms), MUTE_ACTL on Anti-GST sensor, Stomid 100 µM, rep-1, rep-2): 4080 M⁻¹ s⁻¹ | kon (read-out: kon(1/Ms), MUTE_ACTL on Anti-GST sensor, Stomid 200 µM, rep-1, rep-2): 4070 M⁻¹ s⁻¹
